Results published in US20250289804A1, “SUBSTITUTED INDOLE COMPOUNDS AND METHODS OF USE THEREOF” (NOVARTIS PHARMA AG, priority 2021, published 2025).
Read-outs that look alike come from different tables or passages of the source.

Experiments:
[1] = test system: MAC formation in normal human serum; assay: Human serum MAC formation assay (zymosan-coated plates, 50% normal human serum); settings: 50% normal human serum with EGTA, 37° C. 30 minutes
Description: MAC deposition assay using normal human serum was applied to evaluate compound potency under physiologically relevant conditions. Black Maxisorp plates (Thermo Fisher, 437111) were coated with preactivated zymosan (Complement Technology, B400) at 0.5 mg/mL in carbonate buffer (pH 9.5, Sigma, C3041) at room temperature overnight. Compounds were serial diluted 3-fold in 100% DMSO for a 10-point dose-response curve. Normal human serum (Complement Technology, NHS) was diluted to 50% (v/v) with the gelatin buffer (4.2 mM HEPES pH 7.4, 0.15 mM CaCl2, 141 mM NaCl, 4.5 mM MgCl2, 0.1% gelatin) containing 20 mM EGTA or 20 mM EDTA. In conical bottom 96-well plates, 1 μL compound and 99 μL of serum-EGTA were mixed. Serum-EDTA was used as baseline control. The serum-compound mixture was incubated at room temperature for 15 minutes before being transferred to the washed zymosan plate for complement activation at 37° C. for 30 minutes. The reaction was terminated by decanting the reaction mixture and adding blocking buffer (Thermo Fisher, 37539) for 20 minutes. MAC formation on the ELISA plate was detected using 0.2 μg/mL mouse anti-human C9 neoepitope monoclonal antibody (Thermo Fisher, MA5-33373) diluted in phosphate-buffered saline with 0.05% Tween-20 (PBST). A goat anti-mouse IgG-HRP antibody (Thermo Fisher, A16072) was used at 1:2000 in PBST as secondary antibody. After washing, the reaction was developed using QuantaBlu (Thermo Fisher, 15169) for 20 minutes at room temperature. The plates were read at 325 nm excitation and 420 nm emission wavelengths. Percent inhibition values were generated using the baseline (EDTA-serum) and the maximum control (EGTA-serum). An IC50 for each compound was calculated using 4-parameter logistic regression.

human C3bBb = human C3bBb (Homo sapiens (Human), UniProt P00751); assay: Human C3bBb enzyme assay (C3a generation from C3, ELISA); assay type: biochemical
Description: Compounds disclosed herein were evaluated for their potency to inhibit human C3bBb in a biochemical assay. To generate active C3bBb complex in vitro, purified human C3b (Complement Technology, A114), CFB (Complement Technology, A135) and CFD (Complement Technology, A136) were mixed in a 1:1:1 ratio to a final concentration of 1 μM each in the C3bBb assay buffer (PBS pH 7.4, 100 μM NiCl2, 0.05% (w/v) CHAPS). The reaction mix was incubated at room temperature for 30 minutes on a rotating platform. […] On the day of the enzyme assay, a reaction mixture containing 3 nM C3bBb complex and 1 μM purified human C3 (Complement Technology, A113) was prepared in the C3bBb assay buffer. Compounds were serial diluted 3-fold in 100% DMSO for a 10-point dose-response curve. A 0.5 μL aliquot of diluted compound solution was transferred to a conical bottom 96-well plate, before 49.5 μL of the reaction mix was added to each well to initiate the reaction. The plate was incubated for 1 hour at room temperature. […] The generation of C3a from C3 by the C3bBb complex was measured using the MicroVue C3a Plus EIA ELISA kit (Quidel, A031). The concentration of C3a from each well was calculated using a standard curve. Percent inhibition values were generated using the baseline (C3 only) and the maximum control (DMSO instead of compound), and IC50 of each compound was calculated using 4-parameter logistic regression.

[2] = starred values: assay conducted with 1 nM C3b:Bb enzyme, read-out: Human C3b:Bb IC50 Avg
[3] = 3 nM C3bBb complex, 1 μM human C3, 1 hour room temperature, read-out: Human C3b:Bb IC50 Avg

Sequence of human C3bBb (P00751 260-764): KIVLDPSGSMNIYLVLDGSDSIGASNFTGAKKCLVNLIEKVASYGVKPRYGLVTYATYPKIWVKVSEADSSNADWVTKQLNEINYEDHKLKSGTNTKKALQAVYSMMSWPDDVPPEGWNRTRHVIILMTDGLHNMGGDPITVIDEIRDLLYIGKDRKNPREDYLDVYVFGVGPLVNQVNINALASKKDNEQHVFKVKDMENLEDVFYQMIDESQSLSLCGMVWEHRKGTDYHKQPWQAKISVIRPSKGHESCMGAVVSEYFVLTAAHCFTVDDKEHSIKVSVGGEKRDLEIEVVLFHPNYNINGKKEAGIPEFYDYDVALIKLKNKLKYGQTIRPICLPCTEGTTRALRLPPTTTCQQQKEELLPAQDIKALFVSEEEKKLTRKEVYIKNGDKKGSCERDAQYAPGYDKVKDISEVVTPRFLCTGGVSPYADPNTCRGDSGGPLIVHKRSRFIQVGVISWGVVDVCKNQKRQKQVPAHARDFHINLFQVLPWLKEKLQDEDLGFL
Sequence of human C3bBb (P01024 23-667 partner): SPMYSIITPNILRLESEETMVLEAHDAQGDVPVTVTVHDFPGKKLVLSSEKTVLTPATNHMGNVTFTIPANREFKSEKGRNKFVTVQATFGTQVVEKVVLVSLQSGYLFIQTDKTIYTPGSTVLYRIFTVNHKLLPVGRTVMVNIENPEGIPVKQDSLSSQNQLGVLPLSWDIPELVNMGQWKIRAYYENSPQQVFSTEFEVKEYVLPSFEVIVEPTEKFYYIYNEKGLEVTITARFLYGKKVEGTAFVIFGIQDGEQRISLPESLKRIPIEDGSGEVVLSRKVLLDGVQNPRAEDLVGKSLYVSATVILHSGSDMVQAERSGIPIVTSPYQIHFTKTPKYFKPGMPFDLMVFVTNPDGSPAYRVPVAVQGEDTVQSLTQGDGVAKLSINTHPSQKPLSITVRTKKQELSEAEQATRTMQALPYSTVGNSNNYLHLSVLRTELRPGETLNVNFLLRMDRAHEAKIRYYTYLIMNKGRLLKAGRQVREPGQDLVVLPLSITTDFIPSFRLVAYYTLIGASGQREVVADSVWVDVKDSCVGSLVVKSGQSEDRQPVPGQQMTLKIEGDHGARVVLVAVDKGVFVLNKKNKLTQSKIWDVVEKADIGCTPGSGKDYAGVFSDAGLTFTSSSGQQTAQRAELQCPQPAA
Sequence of human C3bBb (P01024 749-1663 partner): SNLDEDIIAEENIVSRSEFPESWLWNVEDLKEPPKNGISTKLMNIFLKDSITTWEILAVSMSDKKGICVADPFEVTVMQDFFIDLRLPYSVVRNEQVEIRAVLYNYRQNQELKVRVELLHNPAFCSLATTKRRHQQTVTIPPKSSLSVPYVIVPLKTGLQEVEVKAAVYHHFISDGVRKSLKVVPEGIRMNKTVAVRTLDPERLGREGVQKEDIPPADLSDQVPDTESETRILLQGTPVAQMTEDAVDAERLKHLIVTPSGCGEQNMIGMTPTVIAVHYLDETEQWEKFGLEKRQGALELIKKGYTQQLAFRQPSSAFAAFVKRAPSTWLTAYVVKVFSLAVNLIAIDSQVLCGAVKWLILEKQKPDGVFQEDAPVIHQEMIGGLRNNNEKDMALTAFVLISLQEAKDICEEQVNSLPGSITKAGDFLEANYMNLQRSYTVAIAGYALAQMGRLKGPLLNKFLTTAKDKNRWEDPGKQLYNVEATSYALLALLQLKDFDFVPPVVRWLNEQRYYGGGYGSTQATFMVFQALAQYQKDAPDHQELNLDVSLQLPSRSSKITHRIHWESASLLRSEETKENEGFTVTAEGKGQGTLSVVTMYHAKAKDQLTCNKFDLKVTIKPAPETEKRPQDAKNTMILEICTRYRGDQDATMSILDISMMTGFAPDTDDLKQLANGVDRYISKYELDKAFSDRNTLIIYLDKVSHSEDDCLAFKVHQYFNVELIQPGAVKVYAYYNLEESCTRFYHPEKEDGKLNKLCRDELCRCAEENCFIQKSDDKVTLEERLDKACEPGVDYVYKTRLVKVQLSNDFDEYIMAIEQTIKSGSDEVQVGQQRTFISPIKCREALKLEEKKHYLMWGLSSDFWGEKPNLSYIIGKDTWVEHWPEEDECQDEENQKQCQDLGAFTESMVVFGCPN

Structure (SMILES)	IC50 (human C3bBb; [2]) [nM]	IC50 (human C3bBb; [3]) [nM]	IC50 [1] [nM]	IC50 (human C3bBb; Human C3b:Bb IC50 Avg (nM), 3 nM C3bBb complex, 1 μM human C3, 1 hour room temperature) [nM]
COc1cc(C)c2[nH]ccc2c1CN1CC[C@H](n2cc(C#N)cn2)C[C@H]1c1ccc(C(=O)O)cc1 [Example 10, 4-((2S,4S)-4-(4-cyano-1H-pyrazol-1-yl)-1-((5-methoxy-7-methyl-1H-indol-4-yl)methyl)piperidin-2-yl)benzoic acid]		50 to 100	300 to 500	
COc1cc(C)c2[nH]ccc2c1CN1CC2(CCCC2)C1c1ccc(C(=O)O)cc1 (racemic) [Example 39, (±)-4-(2-((5-methoxy-7-methyl-1H-indol-4-yl)methyl)-2-azaspiro[3.4]octan-1-yl)benzoic acid]		> 100	300 to 500	
COc1cc(C)c2[nH]ccc2c1CN1CC[C@H](n2cc(F)cn2)C[C@H]1c1ccc(C(=O)O)cc1 [Example 1, 4-((2S,4S)-4-(4-fluoro-1H-pyrazol-1-yl)-1-((5-methoxy-7-methyl-1H-indol-4-yl)methyl)piperidin-2-yl)benzoic acid]		50 to 100	> 500	
COc1cc(C)c2[nH]ccc2c1CN1CCN(CC(F)(F)F)C[C@H]1c1ccc(C(=O)O)cc1 [Example 65, (R)-4-(1-((5-methoxy-7-methyl-1H-indol-4-yl)methyl)-4-(2,2,2-trifluoroethyl)piperazin-2-yl)benzoic acid]	10 to 25		200 to 300	
COc1cc(C)c2[nH]ccc2c1CN1CC[C@H](OC2CCC2)C[C@H]1c1ccc(C(=O)O)cc1 [Example 84, 4-((2S,4S)-4-cyclobutoxy-1-((5-methoxy-7-methyl-1H-indol-4-yl)methyl)piperidin-2-yl)benzoic acid]	25 to 50		200 to 300	
COc1cc(C)c2[nH]ccc2c1CN1CC2(CCC2)[C@H]1c1ccc(C(=O)O)cc1 [Example 40, (R)-4-(2-((5-methoxy-7-methyl-1H-indol-4-yl)methyl)-2-azaspiro[3.3]heptan-1-yl)benzoic acid]		> 100	300 to 500	
COc1cc(C)c2[nH]ccc2c1CN1CC[C@H](NC2COC2)C[C@H]1c1ccc(C(=O)O)cc1 [Example 18, 4-((2S,4S)-1-((5-methoxy-7-methyl-1H-indol-4-yl)methyl)-4-(oxetan-3-ylamino)piperidin-2-yl)benzoic acid]	< 10		100 to 200	
COc1cc(C)c2[nH]ccc2c1CN1CCC2(C[C@H]1c1ccc(C(=O)O)c(F)c1)CC(F)(F)C2 [Example 50, (S)-4-(2,2-difluoro-7-((5-methoxy-7-methyl-1H-indol-4-yl)methyl)-7-azaspiro[3.5]nonan-6-yl)-2-fluorobenzoic acid]	< 10		< 100	
COc1cc(C)c2[nH]ccc2c1CN1CC[C@H](N2CCCC2=O)C[C@H]1c1ccc(C(=O)O)cc1 (racemic) [Example 12, (±)-trans-4-(1-((5-methoxy-7-methyl-1H-indol-4-yl)methyl)-4-(2-oxopyrrolidin-1-yl)piperidin-2-yl)benzoic acid]			300 to 500	> 100

Now from value to molecule, other results behind:

IC50 (human C3bBb; [2]) [nM]	IC50 (human C3bBb; [3]) [nM]	Structure (SMILES)	IC50 [1] [nM]	IC50 (human C3bBb; Human C3b:Bb IC50 Avg (nM), 3 nM C3bBb complex, 1 μM human C3, 1 hour room temperature) [nM]
< 10		COc1cc(C)c2[nH]ccc2c1CN1CC[C@]2(C[C@H]1c1ccc(C(=O)O)cc1)C[C@@H](C(F)F)C2 (single isomer, unassigned) [Example 47, 4-((2R,4s,6S)-2-(difluoromethyl)-7-((5-methoxy-7-methyl-1H-indol-4-yl)methyl)-7-azaspiro[3.5]nonan-6-yl)benzoic acid or 4-((2S,4r,6S)-2-(difluoromethyl)-7-((5-methoxy-7-methyl-1H-indol-4-yl)methyl)-7-azaspiro[3.5]nonan-6-yl)benzoic acid]	< 100	
< 10		COc1cc(C)c2[nH]ccc2c1CN1CCC2(C[C@H]1c1ccc(C(=O)O)cc1)CC1(CC1)C2 [Example 51, (S)-4-(8-((5-methoxy-7-methyl-1H-indol-4-yl)methyl)-8-azadispiro[2.1.5^5.1^3]undecan-7-yl)benzoic acid]	< 100	
< 10		COc1cc(C)c2[nH]ccc2c1CN1CC[C@]2(C[C@H]1c1ccc(C(=O)O)cc1)C[C@@H](OC(F)F)C2 (single isomer, unassigned) [Example 56, 4-((2R,4s,6S)-2-(difluoromethoxy)-7-((5-methoxy-7-methyl-1H-indol-4-yl)methyl)-7-azaspiro[3.5]nonan-6-yl)benzoic acid or 4-((2S,4r,6S)-2-(difluoromethoxy)-7-((5-methoxy-7-methyl-1H-indol-4-yl)methyl)-7-azaspiro[3.5]nonan-6-yl)benzoic acid]	< 100	
< 10		COc1cc(C)c2[nH]ccc2c1CN1CC[C@H](CC2CC2)C[C@H]1c1ccc(C(=O)O)cc1 [Example 44, 4-((2S,4S)-4-(cyclopropylmethyl)-1-((5-methoxy-7-methyl-1H-indol-4-yl)methyl)piperidin-2-yl)benzoic acid]	< 100	
	> 100	COc1cc(C)c2[nH]ccc2c1CN1CC[C@H](NC23CC(C2)C3)C[C@H]1c1ccc(C(=O)O)cc1 [Example 21, 4-((2S,4S)-4-(bicyclo[1.1.1]pentan-1-ylamino)-1-((5-methoxy-7-methyl-1H-indol-4-yl)methyl)pyiperidin-2-yl)benzoic acid]	100 to 200	
< 10		COc1cc(C)c2[nH]ccc2c1CN1CCC2(CC(=O)C2)C[C@H]1c1ccc(C(=O)O)cc1 [Example 58, (S)-4-(7-((5-methoxy-7-methyl-1H-indol-4-yl)methyl)-2-oxo-7-azaspiro[3.5]nonan-6-yl)benzoic acid]	100 to 200	
25 to 50		COc1cc(C)c2[nH]ccc2c1CN1CCN(CC(F)F)C[C@H]1c1ccc(C(=O)O)cc1 [Example 66, (R)-4-(4-(2,2-difluoroethyl)-1-((5-methoxy-7-methyl-1H-indol-4-yl)methyl)piperazin-2-yl)benzoic acid]	100 to 200	
25 to 50		COc1cc(C)c2[nH]ccc2c1CN1CC[C@H](N2CC(F)C2)C[C@H]1c1ccc(C(=O)O)cc1 [Example 80, 4-((2S,4S)-4-(3-fluoroazetidin-1-yl)-1-((5-methoxy-7-methyl-1H-indol-4-yl)methyl)piperidin-2-yl)benzoic acid]	200 to 300	
< 10		COc1cc(C)c2[nH]ccc2c1CN1CC[C@H](N2CC(C(F)F)C2)C[C@H]1c1ccc(C(=O)O)cc1 [Example 74, 4-((2S,4S)-4-(3-(difluoromethyl)azetidin-1-yl)-1-((5-methoxy-7-methyl-1H-indol-4-yl)methyl)piperidin-2-yl)benzoic acid]	100 to 200	
< 10		COc1cc(C)c2[nH]ccc2c1CN1CCC2(COC2)C[C@H]1c1ccc(C(=O)O)cc1 [Example 32, (S)-4-(7-((5-methoxy-7-methyl-1H-indol-4-yl)methyl)-2-oxa-7-azaspiro[3.5]nonan-6-yl)benzoic acid]	< 100	
< 10		COc1cc(C)c2[nH]ccc2c1CN1CC[C@]2(C[C@H]1c1ccc(C(=O)O)cc1)C[C@@H](F)C2 [Example 61, 4-((2S,4r,6S)-2-fluoro-7-((5-methoxy-7-methyl-1H-indol-4-yl)methyl)-7-azaspiro[3.5]nonan-6-yl)benzoic acid and 4-((2R,4s,6S)-2-fluoro-7-((5-methoxy-7-methyl-1H-indol-4-yl)methyl)-7-azaspiro[3.5]nonan-6-yl)benzoic acid]	< 100	
